# Reference: US9120824B2, “Cyclic amine derivatives as EP4 receptor agonists” (ROTTAPHARM BIOTECH S.R.L., priority 2011, dated 2015)
# Experiments:
# [1] = target: T1, hEP4 receptors (human EP4/HEK293 transfectant) (Homo sapiens, UniProt P35408); assay: [3H]-PGE2 membrane binding assay; details: [3H]-PGE2 1 nM, human EP4/HEK293 membranes, compounds 1 nM to 1 μM; Ki by Cheng-Prusoff, pKi = -log10 Ki (M)
# T1 construct: expressed in transfected cells; host or cells: HEK-293, stably transfected; membrane fraction
# Excerpt: (§1) Stable Expression of Human EP4 Receptors in the Human Embryonic Kidney (HEK293) Cell Line
# (§2) The cDNA clone of human EP4 receptor (NM_000958.2) was obtained from Invitrogen™: Ultimate™ ORF Clone Collection-Clone ID IOH46525. The coding sequence was subcloned in expression vector pcDNATM6.2/V5-DEST by Gateway technology (Invitrogen™).
# (§3) Human embryonic kidney cells (HEK-293) were stably transfected with expression vector for human EP4 receptor in according to the method described in FuGENE®6 Transfection Reagent's manual (Roche Applied Science®).
# (§4) Preparation of Membrane Fraction:
# (§5) The EP4 transfected cells were grown in Dulbecco's modified Eagle's medium containing 10% fetal bovine serum and 10 μg/ml Blasticidin S HCl (selection medium) at 37° C. in a humidified atmosphere of 5% CO2 in air.
# (§6) For the membrane preparation, cells in flask were harvested by hypotonical/mechanical lysis with chilled (4° C.) TE buffer (5 mM TRIS, 5 mM etylenediamine tetra-acetic acid (EDTA), pH 7.4).
# (§7) Cells were detached and lysed with 10 ml of hypotonic lysis buffer and by scraping. The cell lysate was vortexed for 30 sec and centrifuged at 40000×g at 4° C. for 22 min.
# a) Membrane Binding Assay[3H]-Prostaglandin E2
# The membrane pellet was resuspended in the same buffer (5 mM TRIS, 5 mM ethylenediamine tetra-acetic acid (EDTA), pH 7.4), and protein concentration was determined by Bradford method (Bio-Bad® assay).
# This membrane preparation was stored at −80° C. freezer until use for binding assay.
# ([^3H]-PGE2) membranes binding assays toward hEP4 receptors (human EP4/HEK293 transfectant, see above) and hEP2 receptors (human EP2/HEK293 transfectant, purchased from PerkinElmer Inc) were performed in 10 mM MES-KOH buffer pH6, containing 10 mM MgCl2 and 1 mM CaCl2 for EP4 binding assay or 50 mM Tris-Cl, BSA 0.5% for EP2 binding assay (according to supplier indication).
# Ten microgram of protein from membrane fractions were incubated in a total volume of 0.1 ml (EP4) or 0.2 ml (EP2) with 1 nM (EP4) or 3 nM (EP2) [^3H]-PGE2 (PerkinElmer Inc, 171 Ci/mmol). In both assays to determine the total binding or non specific binding, 1% DMSO or 1 μM prostaglandin E2 (EP4) or 100 μM (EP2) were added to reaction mixtures, respectively. Incubation was conducted in a polypropylene 96 multiwell for 90 min (EP4) or 60 min (EP2) at room temperature prior to separation of the bound and free radioligand by vacuum manifold rapid filtration on glass fiber filters (Unifilter GFB96, PerkinElmer Inc) pre-soaked in 0.3% polyethyleneimine. Filters were washed with ice cold buffer pH 7.4 (50 mM HEPES, NaCl 500 mM, BSA 0.1% for EP4 binding assay or 50 mM Tris-Cl for EP2 binding assays) and the residual [^3H]-PGE2 binding determined by solid scintillation counter (TopCount, PerkinElmer Inc).
# The affinity (Ki) of each compound was calculated according to the Cheng-Prousoff equation: Ki=IC50/(1+([C]/Kd)). Results were expressed as pKi (−log 10 Ki (M)
# human EP4 receptor = target: T2, human EP4 receptor (Homo sapiens, UniProt P35408); assay: cAMP assay on human EP4 membrane of transfected cells (AlphaScreen); format: biochemical; details: human EP4 HEK293 cell membranes
# T2 construct: expressed in transfected cells; host or cells: HEK-293, stably transfected; membrane fraction
# Excerpt: as §1, §2, §3, §4, §5, §6, §7
# b) cAMP Assay on Human EP4 Membrane of Transfected Cells.
# The assay is based on the competition between endogenous cAMP and exogenously added biotinylated cAMP. The capture of cAMP is achieved by using a specific antibody conjugated to […] beads.
# Cell membranes prepared as described above, were resuspended in 1 ml stimulation buffer (HBSS 1×+BSA 0.1%+IBMX 0.5 mM+HEPES 5 mM+MgCl2 10 mM+GTP 1 nM+GDP 10 μM+ATP 100 μM-pH 7.4). Cell membranes were dispensed into white 384-well microplates at final concentration of 1 μg/well and used for the determination of cAMP with the alphascreen cAMP functional assay (EnVision-PerkinElmer). Cell membrane/anti-cAMP Acceptor beads mix (5 μl) and a mixture of analysed compounds (dissolved in 100% DMSO to a final maximal concentration of 0.01% DMSO)/PGE2 (5 μl) were incubated at room temperature (22-23° C.) for 30 min in the dark. The Biotinylated-cAMP and donor beads (15 μl) were dispensed into each well to start the competition reaction. After 1 h incubation RT (22-23° C.) in the dark the plate was read using EnVision platform to determine the cAMP level (excitation: 680 nm; emission:520,620 nm).
# cAMP standard curve (concentration range from 1×10-6 to 1×10-11 M in log intervals) with a negative control (no cAMP)
# a positive control:forskolin 10 μM
# Antagonism studies were performed stimulating HEK293 cell membrane with PGE2 3 nM. The AlphaScreen signal is plotted as a function of log concentration of cAMP and EC50 is determined. EC50 value is calculated by […].
# T1 sequence (P35408 whole entry): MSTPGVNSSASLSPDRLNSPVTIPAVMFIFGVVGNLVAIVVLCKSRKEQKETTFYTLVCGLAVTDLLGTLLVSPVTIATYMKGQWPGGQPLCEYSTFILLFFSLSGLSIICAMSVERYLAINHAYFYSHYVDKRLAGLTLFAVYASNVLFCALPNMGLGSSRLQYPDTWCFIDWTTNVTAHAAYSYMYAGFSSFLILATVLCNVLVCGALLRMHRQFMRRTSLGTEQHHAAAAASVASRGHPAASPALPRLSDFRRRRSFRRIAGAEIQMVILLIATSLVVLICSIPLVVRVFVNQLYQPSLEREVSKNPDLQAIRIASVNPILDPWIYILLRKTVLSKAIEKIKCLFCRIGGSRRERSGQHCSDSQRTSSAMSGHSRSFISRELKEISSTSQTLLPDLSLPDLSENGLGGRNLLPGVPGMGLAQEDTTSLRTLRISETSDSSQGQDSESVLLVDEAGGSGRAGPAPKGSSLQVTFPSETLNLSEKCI
# T2 sequence (P35408 whole entry): as above
SMILES,Ki [1],EC50 (human EP4 receptor)
"C[C@H](NC(=O)[C@H]1CCCCN1Cc1cccc(C(F)(F)F)c1)c1ccc(C(=O)O)cc1 [Example E5, lithium 4-((S)-1-((R)-1-(3-(trifluoromethyl)benzyl)piperidine-2-carboxamido)ethyl)benzoate]",3.16e-08 M,1 nM
"Cc1cc(CN2CCCC[C@@H]2C(=O)NC2(c3ccc(C(=O)O)cc3)CC2)ccc1F [Example E12, (R)-4-(1-(1-(4-fluoro-3-methylbenzyl)piperidine-2-carboxamido)cyclopropyl)benzoic acid]",3.16e-08 M,6 nM
"C[C@H](NC(=O)[C@H]1CCCN1Cc1cccc(C(F)(F)F)c1)c1ccc(C(=O)O)cc1 [Example E15, lithium 4-((S)-1-((R)-1-(3-(trifluoromethyl)benzyl)pyrrolidine-2-carboxamido)ethyl)benzoate]",2e-08 M,13.5 nM
"C[C@H](NC(=O)[C@H]1C[C@@H](O)CN1Cc1cccc(C(F)(F)F)c1)c1ccc(C(=O)O)cc1 [Example E19, lithium 4-((S)-1-((2R,4R)-4-hydroxy-1-(3-(trifluoromethyl)benzyl)pyrrolidine-2-carboxamido)ethyl)benzoate]",3.98e-08 M,0.1 nM

# The next compounds have a lower Ki [1] than those just listed; values first:
Ki [1],EC50 (human EP4 receptor),SMILES
7.94e-09 M,2.9 nM,"O=C(O)c1ccc(C2(NC(=O)[C@H]3CCCCN3Cc3cccc(C(F)(F)F)c3)CC2)cc1 [Example E9, lithium (R)-4-(1-(1-(3-(trifluoromethyl)benzyl)piperidine-2-carboxamido)cyclopropyl)benzoate]"
1e-08 M,8 nM,"O=C(O)c1ccc(C2(NC(=O)[C@H]3CCCCN3Cc3ccc(F)c(C(F)(F)F)c3)CC2)cc1 [Example E13, lithium (R)-4-(1-(1-(4-fluoro-3-(trifluoromethyl)benzyl)piperidine-2-carboxamido)cyclopropyl)benzoate]"
